Test results published in paper PMC11481179, “Development and Application of Reversible and Irreversible Covalent Probes for Human and Mouse Cathepsin‐K Activity Detection, Revealing Nuclear Activity” (Advanced Science, 2024).

Assays:
U-87 MG cells = experiment: Cell viability assay (methylene blue); type: cell-based, human; details: 48 h incubation
Procedure: U-2 OS, U-87 MG, and enriched monocyte cells were grown at 370 C with 5% of CO2 in the
respective medium as described previously. Cells were seeded (1500 cells/well in 96 wells
plate) one day before the incubation with indicated probe or inhibitor at various concentrations.
After 48 h cells were fixed, and viability was measured by quantitative colorimetric assay using
methylene blue according to the procedure reported by Ben-Bassat et al. The data were
expressed as a percentage of control; data represent the mean of 2 experiments with triplicates
for each treatment (± standard deviation).
Fluorescent imaging of CTSK activity in lung tissue: Freshly resected human lung cancer and
normal lung tissues or mouse normal lung and primary lung cancer were embedded in OCT,
frozen in liquid nitrogen, and kept at - 80° C. Tissues were sectioned into 10 μm thick slices
using a cryostat (Leica). The slides were defrosted and washed with 1X PBS. Then the slides
were pretreated with DMSO or GD30 (5 µM) in buffer acetate for 1 h at 37° C. Afterward,
GD32 (0.75uM) or DMSO in buffer acetate were applied to the slides for 4 h at 37° C. Three
short washes with 1X PBS were done and the slides were left in 1X PBS for overnight
incubation at 4° C. The next day, slides were mounted with DAPI-Fluoromount-G® before
visualization by confocal microscopy. Olympus FV10i was used for human samples, whereas
Zeiss was used for mouse samples.
Details of the synthesis of the compounds
Synthesis of Compound (2)

[1] = target: T1, endogenous CTSK in intact U-2 OS cells (Homo sapiens, UniProt P43235); experiment: Labeling of endogenous CTSK in intact cells, fluorescent SDS-PAGE; type: cell-based; details: inhibitor 5 µM, 2 h, then GD32 5 µM
T1 construct: ability to label endogenous CTSK activity in intact cells; endogenous in cells; host or cells: U-2 OS
T1 sequence (P43235 115-329): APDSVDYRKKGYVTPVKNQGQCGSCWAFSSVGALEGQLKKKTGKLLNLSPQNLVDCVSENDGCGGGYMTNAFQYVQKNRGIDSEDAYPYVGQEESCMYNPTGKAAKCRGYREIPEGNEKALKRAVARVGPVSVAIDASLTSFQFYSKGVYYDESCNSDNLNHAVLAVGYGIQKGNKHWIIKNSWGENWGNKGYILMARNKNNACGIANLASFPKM
Procedure: To test probe selectivity and the ability to label endogenous CTSK activity in intact cells, three cell lines were selected: human osteosarcoma MG‐63 and U‐2 OS, and human glioblastoma U‐87 MG; all cell lines express CTSK along with other lysosomal cathepsins.^[ [44] ^] First, the ABPs were incubated with intact U‐2 OS cells for different durations of time, and the probe selectivity toward CTSK was examined, with a pan cathepsin ABP, GB123, used as a control that labels CTS B, K, L, and S in cells. After cell lysis, the probe‐labeled enzymes were resolved and detected by a fluorescent scan of the SDS‐PAGE. […] Specifically, intact MG‐63 cells required a 5 h incubation (Figure 2b,c), while U‐87 MG cells required a 2 h incubation (Figure 2d).
Figure 2 Labeling of endogenous CTSK in intact cells. a) U2‐OS cells were treated with DMSO or 5 µM of the indicated inhibitors in culture medium, for 2 h, then with indicated ABPs [5 µM] in a culture medium for indicated times, followed by cell lysis, SDS‐PAGE separation, and fluorescent scanning of the gel at 635/670 nm. An immunoblot of CTSK of the same gel is presented below. b) Intact MG63 cells were treated with GD32 5 µM in the culture media for indicated times, cell lysates were analyzed as in a. CTSK immunoblot is presented, pro and mature CTSK are indicated by arrows. c) MG63 cells and d) U87MG cells were treated with DMSO, or 5 µM of indicated inhibitors in culture medium for 2 h, followed by incubation with 5 µM of indicated probes for 5 h (GD32 and GD42) and 2 h (GB123), cell lysates were analyzed by fluorescent SDS PAGE as in a. […] In (c) a CTSK immunoblot of a representative MG63 lane on the right. e) Labeling of active mature CTSK by GD32 in A549 and U2‐0S cells in externally adjusted different pH. Cells were incubated with 5 µM GD32 for 24 h in growth media at indicated pHs, prior to the cell lysis, cell lysates were analysed as in a. CTSK immunoblot below. f) A549 cells were incubated with increasing concentrations of GD30 for 2 h at pH = 5, followed by the incubation with 5 µM GD32 for 24 h prior to the cell lysis, cell lysates were analyzed as in a. g) Intact U‐87 MG cells or U‐87 MG cell lysates were treated with 5 µM GD32 for 2 h, the intact cells were then lysed and all lysates were analyzed as in (a). h) Intact or lysates of U‐87MG were treated with GD32 for 2 h then immunoprecipitation was done with an anti‐CTSK antibody. Input (I), immunoprecipitation (IP), and output (O) were separated by a 14% SDS‐PAGE and scanned for fluorescence. The gel was then blotted and reacted with an anti‐cystatin B antibody below. ODN (Odanacatib), GB111 (GB111‐NH2), mCTSK (mature CTSK). […]
deoxycholate). After adding sample buffer, samples were boiled for 10 minutes, and analyzed […]
lysates were analyzed as described above. […]

CTSS = CTSS (Homo sapiens, UniProt P25774); experiment: In vitro kinetic evaluation of cathepsin inhibition, fluorescent substrate Z-FR-AMC; type: biochemical
Procedure: (§1) used for TLC. Phosphate Buffer Saline (PBS) was purchased from Biological Industries (pH = […]
(§2) 7.4) and was used as a buffer system in all experiments if not indicated otherwise. […]
(§3) Recombinant human CTSB, CTSK, CTSL, and CTSS were supplied by B. Turk (J.
(§4) Stefan Institute).[1] […]
(§5) In vitro kinetic evaluation of labeling recombinant cathepsins:
(§6) Reactions were monitored for 30 min at 37° C in 96-well black flat-bottom microplates […]
(Greiner, Germany) using Tecan INFINITE M1000 pro plate reader (Tecan, Switzerland), […]
(§7) substrates Z-RR-AMC (CTSL) or Z-FR-AMC (CTSS, CTSB and CTSK), and excitation and […]
emission wavelengths of 370 and 460 nm, respectively. Cathepsin concentrations in the assay were 0.4 nM (CTSK) or 5 nM (CTSS, CTSB, and CTSL). The buffer was 100 mM Na2HPO4/NaH2PO4, 50 mM NaCl, 5 mM DTT, 0,1% Peg-6000, pH 6. For irreversible inhibitors, reaction data were fitted to the one-phase association formula in GraphPad Prism 9 software: Y=Y0 + (Plateau-Y0)*(1-exp(-K*X)) where in this case Y0 and Y represent fluorescence signal at times 0 and t, respectively, K represent the observed reaction rate kobs and X the inhibitor concentration. Inactivation rates at each inhibitor concentration were obtained by subtracting the inactivation observed in the control sample: kobs – kctrl. The maximal rate of inactivation (kinact) was obtained as the asymptote from equation Y = kinact*X/(Kiapp + X) where X is inhibitor concentration, Y is the observed inactivation rate for each X, and Kiapp is the apparent inhibition constant. Ki values were calculated from IC50 or from Kiapp using formulas Ki = Kiapp / (1 + Km/S) and IC50 = E0/2 + Kiapp, where Km stands for Michalis-Menten constant, S for substrate concentration and E0 for cathepsin concentration.
(§8) The highest inhibitor concentrations in the assay were 50 µM. Measurements were performed in several independent duplicates. Average values are presented with standard deviations. […]

CTSK = target: T2, CTSK (Homo sapiens, UniProt P43235); experiment: as above; type: biochemical
T2 sequence (P43235 115-329): T1 sequence (P43235 115-329)
Excerpt: as §1, §2, §3, §4
Fluorescent gels were scanned by a Typhoon FLA 9500 flatbed laser scanner (GE Healthcare […]
Bio-Sciences AB, Uppsala, Sweden). BioRad ChemiDox XRS+ was used for western blot […]
analysis. Olympus FV10i inverted microscope (Tokyo,Japan) with Fluoview software or Zeiss […]
Confocal LSM 980 with Airyscan (Germany) with Zen software were used for confocal […]
as §5, §6
(Greiner, Germany) using Tecan […] M1000 pro plate reader (Tecan, Switzerland), […]
as §7
emission wavelengths of 370 and 460 nm, respectively. Cathepsin concentrations in the assay were 0.4 nM (CTSK) or 5 nM (CTSS, CTSB, and CTSL). The buffer was 100 mM Na2HPO4/NaH2PO4, 50 mM NaCl, 5 mM DTT, 0,1% Peg-6000, pH 6. For irreversible inhibitors, reaction data were fitted to the one-phase association formula in GraphPad Prism 9 software: Y=Y0 + (Plateau-Y0)*(1-exp(-K*X)) where in this case Y0 and Y represent fluorescence signal at times 0 and t, respectively, K represent the observed reaction rate kobs and X the inhibitor concentration. Inactivation rates at each inhibitor concentration were […]
maximal rate of inactivation (kinact) was obtained as the asymptote from equation […]
for each X, and Kiapp is the apparent inhibition constant. Ki values were calculated from IC50 or from Kiapp using formulas Ki = Kiapp / (1 + Km/S) and IC50 = E0/2 + Kiapp, where Km stands for Michalis-Menten constant, S for substrate concentration and E0 for cathepsin concentration.
as §8

Sequence of CTSS (P25774 115-331): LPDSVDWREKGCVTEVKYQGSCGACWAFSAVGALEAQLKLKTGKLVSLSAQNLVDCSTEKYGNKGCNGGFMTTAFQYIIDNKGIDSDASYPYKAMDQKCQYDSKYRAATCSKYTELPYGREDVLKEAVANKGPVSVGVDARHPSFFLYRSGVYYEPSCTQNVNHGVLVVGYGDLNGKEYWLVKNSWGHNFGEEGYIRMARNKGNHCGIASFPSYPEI

Row | effect of inhibitor preincubation on GD32-labeled CTSK band [1] | mode of inhibition (CTSS; CTSS) | IC50 (CTSS; CTSS 5 nM) | mode of inhibition (CTSK; CTSK) | IC50 (CTSK; CTSK 0.4 nM, tight binding) | Compound | cytotoxicity (U-87 MG cells)
1 | depletion of the CTSK‐specific band | – | – | – | – | Cc1cccc(C)c1C(=O)OCC(=O)[C@H](CCCCN)NC(=O)[C@H](Cc1ccccc1)NC(=O)OCc1ccccc1 [GB111‐NH2, reference compound] | exhibited cytotoxicity
2 | depletion of the CTSK‐specific band | Reversible | 0.14 µM | Reversible [Tight binding] | 0.00094 µM | CC(C)(F)C[C@H](N[C@@H](c1ccc(-c2ccc(S(C)(=O)=O)cc2)cc1)C(F)(F)F)C(=O)NC1(C#N)CC1 [ODN, odanacatib, reference compound] | –
